# Key:
# [1] = tested on: acetic acid writhing model; test: Mouse acetic acid writhing model; assay type: in vivo, ICR mice; conditions: for Number of writhing responses / Inhibition rate (%): ICR mice; for Number of writhing responses: 60 min before 0.8% acetic acid i.p., 30 min observation, Mean + SD, n = 10; for Inhibition rate (%): inhibition of writhing responses vs control group
# formalin pain model = test: Rat formalin pain model; assay type: in vivo, SD rats; conditions: for Number of pain responses 0 min / Number of pain responses 10 min / Number of pain responses 15 min / Number of pain responses 30 min / Number of pain responses 40 min / Number of pain responses 50 min / Number of pain responses 60 min: SD rats, Mean + SD, n = 10
# Summary of the method: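 Male SD rats (180-200 g, n=10/group) dosed 0, 60 or 120 min before 50 µL 5% formalin into right plantar region. Pain responses counted for 1 min every 5 min over 60 min; inhibition rate relative to vehicle control group.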
# [2] = Tissue distribution study (dorsal root ganglia) in SD rats; assay type: in vivo; conditions: male, rat, oral administration 10 mg/kg
# Method: Experimental Example 5: Tissue distribution study of compounds in SD rats
# Experimental animals: SD rats, male, 6-8 weeks old.
# Compound preparation: 5% (final preparation volume) of DMSO was added to dissolve the test compound, and then 10% (final preparation volume) of Cremophor EL and 85% Saline were sequentially added.
# Experimental design: The test compounds were administered to SD rats as a single dose via oral administration (10 mg/kg; n = 3, 3 time points). Blood samples were collected at 0.5 h, 2 h, and 6 h after oral administration, followed by sacrifice of the animals. Dorsal root ganglia were collected, rinsed with ice-cold normal saline to remove residual blood, blotted dry with absorbent paper, and stored at -70 °C for analysis.
# Sample test: The concentrations of the designated compound drugs in plasma and tissues were determined by the LC-MS/MS method.
# [3] = mouse acetic acid writhing model
# [4] = 50 mg/kg p.o. 120 min before 5% formalin
# [5] = 125 mg/kg p.o. 120 min before 5% formalin
structure (smiles),measurement,setting,value
"COc1c(C2CC(C)(C(F)(F)F)SC2C(=O)Nc2ccnc(C(N)=O)c2)ccc(F)c1F (single isomer, unassigned) [Compound 139-A, 4-(3-(3,4-difluoro-2-methoxyphenyl)-5-methyl-5-(trifluoromethyl)tetrahydrothiophene-2-carboxamido)picolinamide]",Number of writhing responses,[1]; Dose 50 mg/kg,27±18
same,Inhibition rate (%),[1]; Dose 50 mg/kg,45.36%
same,Number of writhing responses,[1]; Dose 125 mg/kg,18±12
same,Inhibition rate (%),[1]; Dose 125 mg/kg,62.89%
same,effect of inhibiting the number of writhing responses,[1]; dose of 125 mg/kg,very significant effect
same,dose-effect relationship,[1]; [3],relatively good dose-effect relationship
same,inhibition of the writhing effect compared with VX-548,[1]; [3],better than VX-548
same,Number of pain responses 0 min,formalin pain model; [4],35.6±6.7
same,Number of pain responses 10 min,formalin pain model; [4],1.7±2.5
same,Number of pain responses 15 min,formalin pain model; [4],6.8±3.9
same,Number of pain responses 30 min,formalin pain model; [4],15.1±4.4
same,Number of pain responses 40 min,formalin pain model; [4],12.7±5.9
same,Number of pain responses 50 min,formalin pain model; [4],6.1±5.2
same,Number of pain responses 60 min,formalin pain model; [4],2.7±2.6
same,Number of pain responses 0 min,formalin pain model; [5],25.5±13.6
same,Number of pain responses 10 min,formalin pain model; [5],1.1±1.1
same,Number of pain responses 15 min,formalin pain model; [5],4.3±2.7
same,Number of pain responses 30 min,formalin pain model; [5],11.7±6.3
same,Number of pain responses 40 min,formalin pain model; [5],4.8±3.9
same,Number of pain responses 50 min,formalin pain model; [5],1.8±1.8
same,Number of pain responses 60 min,formalin pain model; [5],1.8±1.2
same,dose-effect relationship,formalin pain model; rat formalin pain model,relatively good dose-effect relationship
same,analgesic activity in the first and second phases,"formalin pain model; rat formalin pain model, first phase immediately after injection, second phase about 15-20 min after",significant analgesic activity in both the first and second phases
same,concentration at 0.5 h,[2]; Time 0.5 h,1070 ng/g
same,concentration at 2 h,[2]; Time 2 h,973 ng/g
same,concentration at 6 h,[2]; Time 6 h,549 ng/g

# Reference: patent EP4813993A1, “COMPOUND, PREPARATION METHOD THEREFOR, AND USE THEREOF” (Sichuan Kelun Pharmaceutical Research Institute Co., Ltd., priority 2023, dated 2025)
